Data from patent US8946405B2, “Controlled release from solid supports” (Prolynx LLC, priority 2010, dated 2015).

Assays:
[1] = Hydrolysis of carbamate in 50% human serum; assay type: in vitro ADME; conditions: after 1 week at 37° C.
Description: In general, compared to C—H, a) electron withdrawing groups at R^1 increase the rate; b) alkyl groups at R^5 increase the rate; and c) aryl moieties at R^5 decrease the rate.

[2] = Release of Nε-2,4-dinitrophenyl-L-lysine from DNP-Lys carbamates (β-elimination), HPLC; assay type: physicochemical; conditions: after 5 days at 37° C. and pH 7.4
Procedure: A series of linker scaffolds having a range of functional groups as potential pKa modulators (substituted aromatics, ketones, nitriles, sulfones) were designed, prepared and linked via carbamate bonds to Ne-2,4-dinitrophenyl-L-lysine (Ne-DNP-Lys) for evaluation of release rates. DNP-Lys was chosen as the released moiety as is water soluble and is a strong chromophore to permit HPLC-UV analysis.
The rates of release of Nε-2,4-dinitrophenyl-L-lysine from these compounds were determined at pH 7.4 or pH 8.3, 37° C., by HPLC analysis. Kinetic analyses of the release reactions were performed by HPLC (C18; linear MeOH/water+0.5% HOAc gradient) using a UV/vis monitor at 350 nm. The areas under the Lys(DNP) (“P”) and starting material (“S”) peaks were integrated to determine extent of reaction (“R”) as R=P/(S+P). Reaction rates were calculated from the slope the line obtained by linear regression analysis of a plot of ln(1-R) versus time.

SMILES: O=C(N[C@@H](CCCCNc1ccc([N+](=O)[O-])cc1[N+](=O)[O-])C(=O)O)OCc1ccccc1 [O-benzyl-N—(Nε-2,4-dinitrophenyl-L-lysine)-carbamate]
- hydrolysis in 50% human serum [1]: no detectable hydrolysis
- cleavage (estimated detection limit) [2]: < 0.25%
- release of Nε-2,4-dinitrophenyl-L-lysine [2]: no observable release
